Source: ChEMBL document CHEMBL1909046, “DrugMatrix in vitro pharmacology data”

Columns and labels:
[1] = DRUGMATRIX: Platelet-Derived Growth Factor (PDGF) radioligand binding (ligand: [125I] PDGF); assay type: cell-based; conditions: nih3t3; Not Active = under 50% inhibition at 10 µM
[2] = molecular target: Matrix metalloproteinase-9 (Homo sapiens, UniProt P14780); assay: biochemical; assay type: cell-based;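 further: inhibition of isolated MMP-9 enzyme activity toward a synthetic peptide substrate, from the DrugMatrix protease screening panel; in other assays of this panel Not Active means under 50% inhibition at 10 µM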
Chain of Matrix metalloproteinase-9 (P14780 whole entry): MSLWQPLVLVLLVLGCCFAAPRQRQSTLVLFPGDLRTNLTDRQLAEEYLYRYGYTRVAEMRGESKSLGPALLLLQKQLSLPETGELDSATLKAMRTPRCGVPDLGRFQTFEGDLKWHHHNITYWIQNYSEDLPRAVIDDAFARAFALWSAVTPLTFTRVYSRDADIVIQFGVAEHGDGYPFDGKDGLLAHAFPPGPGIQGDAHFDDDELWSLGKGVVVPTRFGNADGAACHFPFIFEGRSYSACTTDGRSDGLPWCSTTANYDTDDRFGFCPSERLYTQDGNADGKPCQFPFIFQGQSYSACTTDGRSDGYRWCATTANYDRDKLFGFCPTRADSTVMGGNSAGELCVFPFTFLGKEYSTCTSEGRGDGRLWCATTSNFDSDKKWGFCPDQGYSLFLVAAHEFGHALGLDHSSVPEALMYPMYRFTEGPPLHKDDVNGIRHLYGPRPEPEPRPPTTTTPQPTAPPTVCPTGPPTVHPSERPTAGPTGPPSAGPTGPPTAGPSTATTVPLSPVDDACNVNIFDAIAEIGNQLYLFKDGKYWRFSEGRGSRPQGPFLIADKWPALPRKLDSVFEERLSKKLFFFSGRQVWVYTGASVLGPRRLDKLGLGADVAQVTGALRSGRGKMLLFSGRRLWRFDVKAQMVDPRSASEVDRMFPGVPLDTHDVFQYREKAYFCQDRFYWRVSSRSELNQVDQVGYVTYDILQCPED

[3] = DRUGMATRIX: Phosphodiesterase PDE3 enzyme inhibition (substrate: [3H]cAMP + cAMP); assay type: tissue-based, Homo sapiens; conditions: platelet; Not Active = under 50% inhibition at 10 µM
[4] = molecular target: T1, 3-hydroxy-3-methylglutaryl-coenzyme A reductase (Homo sapiens, UniProt P04035); design: species or system Escherichia coli;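 further: enzyme inhibition assay of HMG-CoA reductase using radiolabeled [14C]HMG-CoA as substrate; in other assays of this panel Not Active means under 50% inhibition at 10 µM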
T1 sequence (P04035 whole entry): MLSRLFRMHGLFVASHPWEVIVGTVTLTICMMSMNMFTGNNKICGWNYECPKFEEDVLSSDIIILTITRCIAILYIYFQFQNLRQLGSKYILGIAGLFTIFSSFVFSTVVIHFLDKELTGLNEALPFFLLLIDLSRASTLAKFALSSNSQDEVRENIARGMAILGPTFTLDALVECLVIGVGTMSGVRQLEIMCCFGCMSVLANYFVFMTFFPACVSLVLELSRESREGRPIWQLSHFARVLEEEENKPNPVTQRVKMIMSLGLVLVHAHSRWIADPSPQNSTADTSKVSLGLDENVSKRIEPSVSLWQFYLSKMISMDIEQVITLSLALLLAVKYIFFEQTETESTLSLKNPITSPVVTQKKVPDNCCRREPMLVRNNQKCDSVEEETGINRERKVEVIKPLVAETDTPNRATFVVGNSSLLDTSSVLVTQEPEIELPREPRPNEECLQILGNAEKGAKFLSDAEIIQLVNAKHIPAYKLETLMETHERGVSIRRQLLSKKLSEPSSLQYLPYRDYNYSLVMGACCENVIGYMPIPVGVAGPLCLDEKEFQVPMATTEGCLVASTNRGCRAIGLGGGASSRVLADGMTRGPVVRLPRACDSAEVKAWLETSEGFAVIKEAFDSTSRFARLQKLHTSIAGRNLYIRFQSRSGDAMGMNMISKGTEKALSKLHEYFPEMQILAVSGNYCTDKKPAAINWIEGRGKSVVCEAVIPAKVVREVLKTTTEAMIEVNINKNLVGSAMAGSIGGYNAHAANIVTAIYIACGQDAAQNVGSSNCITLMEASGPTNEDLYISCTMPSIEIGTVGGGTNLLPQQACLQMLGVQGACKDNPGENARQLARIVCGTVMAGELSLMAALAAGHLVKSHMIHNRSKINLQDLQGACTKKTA

[5] = molecular target: T2, Alpha-1D adrenergic receptor (Homo sapiens, UniProt P25100); assay type: cell membranes, HEK293, Membrane; conditions: hek293; further: in other assays of this panel Not Active means under 50% inhibition at 10 µM
T2 sequence (P25100 whole entry): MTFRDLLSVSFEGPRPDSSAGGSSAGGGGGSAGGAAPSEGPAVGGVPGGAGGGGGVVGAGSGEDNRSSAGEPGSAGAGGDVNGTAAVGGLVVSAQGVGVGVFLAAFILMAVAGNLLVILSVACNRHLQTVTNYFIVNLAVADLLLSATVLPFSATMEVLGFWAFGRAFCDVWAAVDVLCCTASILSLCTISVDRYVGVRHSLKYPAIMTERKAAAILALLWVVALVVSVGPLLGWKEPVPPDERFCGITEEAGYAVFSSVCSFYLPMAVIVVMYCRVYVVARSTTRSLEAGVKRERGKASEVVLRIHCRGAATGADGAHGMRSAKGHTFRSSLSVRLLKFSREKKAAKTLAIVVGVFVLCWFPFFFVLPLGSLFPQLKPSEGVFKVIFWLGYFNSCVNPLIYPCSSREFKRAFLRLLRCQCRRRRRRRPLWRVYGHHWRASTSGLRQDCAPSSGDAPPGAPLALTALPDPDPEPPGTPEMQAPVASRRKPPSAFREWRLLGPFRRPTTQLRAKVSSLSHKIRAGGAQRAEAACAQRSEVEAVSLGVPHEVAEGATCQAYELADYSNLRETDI

[6] = molecular target: Prostaglandin G/H synthase 1 (Homo sapiens, UniProt P23219); assay: biochemical; assay type: tissue-based, Platelet; conditions: platelet;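 further: inhibition of COX-1 enzyme activity, with arachidonic acid supplied as substrate; in other assays of this panel Not Active means under 50% inhibition at 10 µM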
Chain of Prostaglandin G/H synthase 1 (P23219 whole entry): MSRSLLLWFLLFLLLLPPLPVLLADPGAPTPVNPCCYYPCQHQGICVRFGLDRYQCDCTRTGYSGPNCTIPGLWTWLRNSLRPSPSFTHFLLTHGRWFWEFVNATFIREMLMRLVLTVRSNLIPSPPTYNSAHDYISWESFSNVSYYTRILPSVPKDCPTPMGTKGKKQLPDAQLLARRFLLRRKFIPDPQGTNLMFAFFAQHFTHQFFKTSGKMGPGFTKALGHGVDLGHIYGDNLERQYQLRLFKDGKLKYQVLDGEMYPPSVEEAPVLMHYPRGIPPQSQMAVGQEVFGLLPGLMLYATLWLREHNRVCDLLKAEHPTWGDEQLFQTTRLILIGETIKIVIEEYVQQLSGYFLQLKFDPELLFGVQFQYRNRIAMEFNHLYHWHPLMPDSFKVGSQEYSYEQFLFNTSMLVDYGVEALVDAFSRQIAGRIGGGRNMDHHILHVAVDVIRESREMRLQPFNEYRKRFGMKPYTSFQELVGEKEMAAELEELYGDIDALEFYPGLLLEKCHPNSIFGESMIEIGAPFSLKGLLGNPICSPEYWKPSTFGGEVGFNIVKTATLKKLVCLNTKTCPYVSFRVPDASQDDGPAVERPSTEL

[7] = molecular target: T3, Alpha-1B adrenergic receptor (Rattus norvegicus, UniProt P15823); assay: DRUGMATRIX: Alpha-1B adrenergic receptor radioligand binding (ligand: prazosin); assay type: cell membranes, Wistar, Liver, Membrane; conditions: Not Active = under 50% inhibition at 10 µM
T3 sequence (P15823 whole entry): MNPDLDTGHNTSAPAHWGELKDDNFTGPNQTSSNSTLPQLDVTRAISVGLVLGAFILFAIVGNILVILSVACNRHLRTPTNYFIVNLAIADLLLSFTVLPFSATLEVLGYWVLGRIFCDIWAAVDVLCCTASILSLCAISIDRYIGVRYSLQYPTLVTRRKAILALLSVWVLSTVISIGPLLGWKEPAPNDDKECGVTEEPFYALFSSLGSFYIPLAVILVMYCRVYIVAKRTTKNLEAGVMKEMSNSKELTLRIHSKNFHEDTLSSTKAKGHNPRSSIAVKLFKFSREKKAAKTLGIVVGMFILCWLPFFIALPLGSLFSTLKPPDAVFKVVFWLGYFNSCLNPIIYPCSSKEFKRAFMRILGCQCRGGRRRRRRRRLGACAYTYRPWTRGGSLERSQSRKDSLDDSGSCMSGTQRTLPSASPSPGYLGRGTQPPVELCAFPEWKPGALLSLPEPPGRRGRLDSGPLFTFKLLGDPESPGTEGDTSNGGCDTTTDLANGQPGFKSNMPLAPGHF

[8] = molecular target: Adenosine receptor A2a (Homo sapiens, UniProt P29274); assay: DRUGMATRIX: Adenosine A2A radioligand binding (ligand: […]); assay type: cell membranes, Membrane; conditions: hek293; Not Active = under 50% inhibition at 10 µM
Chain of Adenosine receptor A2a (P29274 whole entry): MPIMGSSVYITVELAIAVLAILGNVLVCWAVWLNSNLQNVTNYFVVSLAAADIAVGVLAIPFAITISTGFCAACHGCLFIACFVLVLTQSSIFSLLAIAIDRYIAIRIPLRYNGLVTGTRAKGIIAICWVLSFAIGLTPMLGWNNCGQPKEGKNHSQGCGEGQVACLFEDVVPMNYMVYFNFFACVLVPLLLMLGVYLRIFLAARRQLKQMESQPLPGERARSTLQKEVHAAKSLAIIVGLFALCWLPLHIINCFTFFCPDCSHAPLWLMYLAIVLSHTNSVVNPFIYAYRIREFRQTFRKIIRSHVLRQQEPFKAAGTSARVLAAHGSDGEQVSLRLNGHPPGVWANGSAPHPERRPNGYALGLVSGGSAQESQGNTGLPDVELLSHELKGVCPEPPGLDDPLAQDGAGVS

Structure (SMILES)	IC50 [1]	Ki [1]	IC50 [2]	IC50 [3]	Ki [3]	IC50 [4]	IC50 [5]	IC50 [6]	IC50 [7]	IC50 [8]	IC50 ([2]; read-out: IC50) [µM]
COc1nc(C)nc(Cl)c1NC1=NCCN1 [MOXONIDINE]	Not Active	Not Active	Not Active	Not Active	Not Active	Not Active	Not Active	Not Active	Not Active	Not Active	
N[C@@H](Cc1ccc(O)c(O)c1)C(=O)O [LEVODOPA]	Not Active	Not Active	Not Active	Not Active	Not Active	Not Active	Not Active	Not Active	Not Active	Not Active	
OCCN(CCO)c1nc(N2CCCCC2)c2nc(N(CCO)CCO)nc(N3CCCCC3)c2n1 [DIPYRIDAMOLE]	Not Active	Not Active	Not Active	Not Active	Not Active	Not Active	Not Active	Not Active	Not Active	Not Active	
Cn1ccnc1S [METHIMAZOLE]	Not Active	Not Active	Not Active	Not Active	Not Active	Not Active	Not Active	Not Active	Not Active	Not Active	
CC(=O)[C@@]1(O)CC[C@H]2[C@@H]3C[C@H](C)C4=CC(=O)CC[C@]4(C)[C@H]3CC[C@@]21C	Not Active	Not Active	Not Active	Not Active	Not Active	Not Active	Not Active	Not Active	Not Active	Not Active	
C=CCC1(C(C)CCC)C(=O)NC(=O)NC1=O (stereo not given) [SECOBARBITAL]	Not Active	Not Active		Not Active	Not Active	Not Active	Not Active	Not Active	Not Active	Not Active	2.64
C[C@@H]1CN(c2c(F)c(N)c3c(=O)c(C(=O)O)cn(C4CC4)c3c2F)C[C@H](C)N1 [SPARFLOXACIN]	Not Active	Not Active	Not Active	Not Active	Not Active	Not Active	Not Active	Not Active	Not Active	Not Active	
O=c1ncn2nc(Sc3ccc(F)cc3F)ccc2c1-c1c(Cl)cccc1Cl [NEFLAMAPIMOD]	Not Active	Not Active	Not Active	Not Active	Not Active	Not Active	Not Active	Not Active	Not Active	Not Active	
Nc1c2c(nc3ccccc13)CCCC2 [TACRINE]	Not Active	Not Active	Not Active	Not Active	Not Active	Not Active	Not Active	Not Active	Not Active	Not Active	
CO[C@H]1/C=C/O[C@@]2(C)Oc3c(C)c(O)c4c(O)c(c(/C=N/N5CCN(C)CC5)c(O)c4c3C2=O)NC(=O)/C(C)=C\C=C\[C@H](C)[C@H](O)[C@@H](C)[C@@H](O)[C@@H](C)[C@H](OC(C)=O)[C@@H]1C [RIFAMPIN]	Not Active	Not Active	Not Active	Not Active	Not Active	Not Active	Not Active	Not Active	Not Active	Not Active	
